Measurements: patent US10975056B2 (GlaxoSmithKline Intellectual Property Development Limited, priority 2016, dated 2021)
Where a name gives a salt, the structure may show the parent alone. Read-outs that look alike come from different tables or passages of the source.

Tests used:
[1] = tested on: erythroid progenitor cells (EPCs); assay: Fetal hemoglobin (HbF) ELISA in day 7 erythroid progenitor cells; format: cell-based, human; conditions: Homo sapiens, Erythroid progenitor cell, HbF ELISA, day 7 EPCs, 5 days; read-out: EPC ELISA (pEC50 category) (converted);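 note: for fetal hemoglobin induction normalized to vehicle-treated cells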
Procedure, shortened: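 Day 7 EPCs from human bone marrow CD34+ cells were plated at 1,000 cells/well in media with 3 U/mL rhEPO. They were exposed to a 22-point dilution ([…]) for 5 days at 37 °C. Lysate HbF was measured by sandwich ELISA (OD450) and normalized to DMSO control wells.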

DNMT1 = DNMT1 (Homo sapiens, UniProt P26358); assay: DNMT1 biochemical activity, breaklight assay and/or SPA assay
[2] = binned activity in either the breaklight or the SPA assay
[3] = binned activity in either the breaklight or the SPA assay, read-out: DNMT1 BioChemical (pIC50 category) (converted)
[4] = breaklight assay and/or SPA assay, repeated experimental runs
[5] = breaklight assay and/or SPA assay, repeated experimental runs, read-out: average pIC50 against DNMT1 (converted)

Chain of DNMT1 (P26358 whole entry, looked up): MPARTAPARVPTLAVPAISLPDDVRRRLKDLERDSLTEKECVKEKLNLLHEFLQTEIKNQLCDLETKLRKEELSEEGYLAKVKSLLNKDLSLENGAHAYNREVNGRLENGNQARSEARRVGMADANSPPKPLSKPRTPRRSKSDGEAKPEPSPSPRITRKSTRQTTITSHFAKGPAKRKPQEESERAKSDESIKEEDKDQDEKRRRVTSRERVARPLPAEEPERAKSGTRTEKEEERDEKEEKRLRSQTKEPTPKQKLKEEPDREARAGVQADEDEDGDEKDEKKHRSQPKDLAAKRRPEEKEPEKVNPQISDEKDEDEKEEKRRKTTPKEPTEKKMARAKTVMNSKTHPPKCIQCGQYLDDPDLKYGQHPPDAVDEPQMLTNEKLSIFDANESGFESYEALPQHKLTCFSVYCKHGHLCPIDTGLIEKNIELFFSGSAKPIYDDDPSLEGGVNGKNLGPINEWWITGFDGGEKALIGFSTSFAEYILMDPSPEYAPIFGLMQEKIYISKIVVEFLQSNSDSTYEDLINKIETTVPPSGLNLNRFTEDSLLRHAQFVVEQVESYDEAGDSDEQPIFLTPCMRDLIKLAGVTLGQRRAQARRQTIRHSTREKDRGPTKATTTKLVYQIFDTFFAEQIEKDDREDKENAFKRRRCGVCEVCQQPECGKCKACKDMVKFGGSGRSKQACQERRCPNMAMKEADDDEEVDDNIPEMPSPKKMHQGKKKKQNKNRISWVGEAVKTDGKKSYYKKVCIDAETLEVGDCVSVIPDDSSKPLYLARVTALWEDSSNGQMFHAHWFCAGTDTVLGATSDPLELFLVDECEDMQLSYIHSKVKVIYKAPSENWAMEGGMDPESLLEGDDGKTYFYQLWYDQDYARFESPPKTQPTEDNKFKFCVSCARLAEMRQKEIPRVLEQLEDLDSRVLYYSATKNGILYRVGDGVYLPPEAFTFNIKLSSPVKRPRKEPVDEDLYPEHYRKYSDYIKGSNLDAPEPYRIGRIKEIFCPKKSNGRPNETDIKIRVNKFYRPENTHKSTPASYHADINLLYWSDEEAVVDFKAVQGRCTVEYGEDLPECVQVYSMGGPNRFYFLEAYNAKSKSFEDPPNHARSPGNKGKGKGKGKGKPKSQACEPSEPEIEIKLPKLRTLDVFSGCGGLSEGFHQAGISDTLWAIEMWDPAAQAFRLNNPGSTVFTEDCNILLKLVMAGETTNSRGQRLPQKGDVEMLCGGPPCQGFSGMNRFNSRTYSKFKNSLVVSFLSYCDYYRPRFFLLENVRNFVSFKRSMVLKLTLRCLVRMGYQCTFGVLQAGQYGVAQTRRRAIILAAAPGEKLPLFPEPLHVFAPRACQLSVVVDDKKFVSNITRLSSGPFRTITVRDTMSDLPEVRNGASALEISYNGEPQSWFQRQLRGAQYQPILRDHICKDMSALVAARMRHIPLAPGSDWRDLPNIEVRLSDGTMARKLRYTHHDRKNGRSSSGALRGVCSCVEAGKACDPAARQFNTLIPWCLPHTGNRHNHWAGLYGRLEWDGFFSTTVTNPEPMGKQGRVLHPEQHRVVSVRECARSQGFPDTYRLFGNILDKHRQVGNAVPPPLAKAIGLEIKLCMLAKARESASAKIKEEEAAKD

Row | Compound | EC50 [1] | DNMT1 BioChemical (pIC50 category) (DNMT1; [2]) | IC50 (DNMT1; [3]) | average pIC50 against DNMT1 (DNMT1; [4]) | IC50 (DNMT1; [5])
1 | CCc1c(C#N)c(SCc2ccc(CNC(C)=O)cc2)nc(N2CCC(N3CCCC3)CC2)c1C#N [Example 66, N-(4-((3,5-Dicyano-4-ethyl-6-(4-(pyrrolidin-1-yl)piperidin-1-yl)pyridin-2-ylthio)methyl)benzyl)acetamide trifluoroacetate] | < 316 nM | D (Category D: ≥6.5) | – | – | –
2 | CCc1c(C#N)c(SC(C(N)=O)c2ccccc2)nc(N2CCC(NC(C)(C)C(=O)OC)CC2)c1C#N (stereo not shown) [Example 487, methyl 2-((1-(6-((2-amino-2-oxo-1-phenylethyl)thio)-3,5-dicyano-4-ethylpyridin-2-yl)piperidin-4-yl)amino)-2-methylpropanoate] | < 316 nM | D (Category D: ≥6.5) | – | – | –
3 | CCc1c(C#N)c(SC(C(N)=O)c2ccccc2)nc(N(C)CCN2[C@H](C)CC[C@H]2C)c1C#N (stereo partly drawn) [Example 485, 2-((3,5-dicyano-6-((2-((2R,5R)-2,5-dimethylpyrrolidin-1-yl)ethyl)(methyl)amino)-4-ethylpyridin-2-yl)thio)-2-phenylacetamide] | < 316 nM | D (Category D: ≥6.5) | – | – | –
4 | CCc1c(C#N)c(SC(C(N)=O)c2ccccc2)nc(N(C)CCNCCF)c1C#N (stereo not shown) [Example 495, 2-((3,5-dicyano-4-ethyl-6-((2-((2-fluoroethyl)amino)ethyl)(methyl)amino)pyridin-2-yl)thio)-2-phenylacetamide] | 1000 to 31600 nM | D (Category D: ≥6.5) | – | – | –
5 | CCc1c(C#N)c(SC(C(N)=O)c2ccccc2)nc(N(C)CC(=O)NCCCO)c1C#N (stereo not shown) [Example 677, 2-((6-((2-amino-2-oxo-1-phenylethyl)thio)-3,5-dicyano-4-ethylpyridin-2-yl)(methyl)amino)-N-(3-hydroxypropyl)acetamide] | 316 to 1000 nM | D (Category D: ≥6.5) | – | – | –
6 | CCc1c(C#N)c(SC(C(N)=O)c2ccccc2)nc(N2CC[C@@H](N)[C@@H](F)C2)c1C#N (relative stereo) [Example 545, rel-2-((6-cis-4-amino-3-fluoropiperidin-1-yl)-3,5-dicyano-4-ethylpyridin-2-yl)thio)-2-phenylacetamide] | < 316 nM | – | < 316 nM | – | –
7 | CCc1c(C#N)c(SC(C(N)=O)c2ccc(F)cc2)nc(N2CCN(C(C)(C)CO)CC2)c1C#N (stereo not shown) [Example 222, 2-((3,5-Dicyano-4-ethyl-6-(4-(1-hydroxy-2-methylpropan-2-yl)piperazin-1-yl)pyridin-2-yl)thio)-2-(4-fluorophenyl)acetamide] | 316 to 1000 nM | – | 1000 to 31600 nM | – | –
8 | CCc1c(C#N)c(SC(C(N)=O)c2ccccc2)nc(N2CCN(Cc3cncs3)CC2)c1C#N (stereo not shown) [Example 195, 2-((3,5-Dicyano-4-ethyl-6-(4-(thiazol-5-ylmethyl)piperazin-1-yl)pyridin-2-yl)thio)-2-phenylacetamide] | 316 to 1000 nM | – | 316 to 1000 nM | – | –
9 | CCc1c(C#N)c(SCc2ccc(N3CCN(C)CC3)cc2)nc(N2CCCN(C)CC2)c1C#N [Example 384, 4-Ethyl-2-(4-methyl-1,4-diazepan-1-yl)-6-((4-(4-methylpiperazin-1-yl)benzyl)thio)pyridine-3,5-dicarbonitrile] | > 31600 nM | – | 316 to 1000 nM | – | –
10 | CCc1c(C#N)c(S[C@@H](C(N)=O)c2ccccc2)nc(N2CC[C@H](O)C2)c1C#N [Example 168, (R)-2-((3,5-Dicyano-4-ethyl-6-((S)-3-hydroxypyrrolidin-1-yl)pyridin-2-yl)thio)-2-phenylacetamide] | 316 to 1000 nM | D (Category D: ≥6.5) | – | > 6.5 | 200 nM
11 | N#Cc1c(SC(C(N)=O)c2ccccc2)nc(N2CCC(NCCO)CC2)c(C#N)c1C1CC1 (stereo not shown) [Example 657, 2-((3,5-dicyano-4-cyclopropyl-6-(4-((2-hydroxyethyl)amino)piperidin-1-yl)pyridin-2-yl)thio)-2-phenylacetamide] | 1000 to 31600 nM | D (Category D: ≥6.5) | – | – | –
12 | CCc1c(C#N)c(SC(C(N)=O)c2ccccc2)nc(N2CCC(NC(=O)[C@H](N)CO)CC2)c1C#N (stereo partly drawn) [Example 398, (2R)-2-Amino-N-(1-(6-((2-amino-2-oxo-1-phenylethyl)thio)-3,5-dicyano-4-ethylpyridin-2-yl)piperidin-4-yl)-3-hydroxypropanamide] | 1000 to 31600 nM | D (Category D: ≥6.5) | – | – | –
13 | CCc1c(C#N)c(SC(C(N)=O)c2ccccc2)nc(N2CCO[C@@H](CNC(=O)C(C)(C)N)C2)c1C#N (stereo partly drawn) [Example 575, 2-amino-N-(((2S)-4-(6-((2-amino-2-oxo-1-phenylethyl)thio)-3,5-dicyano-4-ethylpyridin-2-yl)morpholin-2-yl)methyl)-2-methylpropanamide] | < 316 nM | D (Category D: ≥6.5) | – | – | –
14 | CCc1c(C#N)c(SC(C(N)=O)c2ccccc2)nc(N2CCC(CO)(NCCO)CC2)c1C#N (stereo not shown) [Example 661, 2-((3,5-dicyano-4-ethyl-6-(4-((2-hydroxyethyl)amino)-4-(hydroxymethyl)piperidin-1-yl)pyridin-2-yl)thio)-2-phenylacetamide] | 1000 to 31600 nM | D (Category D: ≥6.5) | – | – | –
15 | CCc1c(C#N)c(SC(C(N)=O)c2ccccc2)nc(N2CCC(NCC(F)F)CC2)c1C#N (stereo not shown) [Example 554, 2-((3,5-dicyano-6-(4-((2,2-difluoroethyl)amino)piperidin-1-yl)-4-ethylpyridin-2-yl)thio)-2-phenylacetamide] | < 316 nM | D (Category D: ≥6.5) | – | – | –
16 | N#Cc1c(SC(C(N)=O)c2ccccc2)nc(N2CC[C@H](N)C2)c(C#N)c1C1CC1 (stereo partly drawn) [Example 115, 2-({6-[(3S)-3-Aminopyrrolidin-1-yl]-3,5-dicyano-4-cyclopropylpyridin-2-yl}sulfanyl)-2-phenylacetamide] | < 316 nM | D (Category D: ≥6.5) | – | > 6.5 | 200 nM
17 | CCOc1c(C#N)c(SC(C)C(N)=O)nc(N2CCCN(CCO)CC2)c1C#N (stereo not shown) [Example 212, 2-((3,5-Dicyano-4-ethoxy-6-(4-(2-hydroxyethyl)-1,4-diazepan-1-yl)pyridin-2-yl)thio)propanamide] | 1000 to 31600 nM | – | 316 to 1000 nM | – | –
18 | CCc1c(C#N)c(SC(C(N)=O)c2ccccc2)nc(N(C)CCNCCOC)c1C#N (stereo not shown) [Example 491, 2-((3,5-dicyano-4-ethyl-6-((2-((2-methoxyethyl)amino)ethyl)(methyl)amino)pyridin-2-yl)thio)-2-phenylacetamide] | < 316 nM | D (Category D: ≥6.5) | – | – | –
19 | CCc1c(C#N)c(SC(C(N)=O)c2ccccc2)nc(N(C)CC(=O)NCCN)c1C#N (stereo not shown) [Example 630, 2-((6-((2-amino-2-oxo-1-phenylethyl)thio)-3,5-dicyano-4-ethylpyridin-2-yl)(methyl)amino)-N-(2-aminoethyl)acetamide hydrochloride] | < 316 nM | D (Category D: ≥6.5) | – | – | –
20 | CCc1c(C#N)c(SC(C(N)=O)c2ccccc2)nc(N2CCOC(CNC)C2)c1C#N (stereo not shown) [Example 563, 2-((3,5-dicyano-4-ethyl-6-(2-((methylamino)methyl)morpholino)pyridin-2-yl)thio)-2-phenylacetamide] | < 316 nM | D (Category D: ≥6.5) | – | – | –
21 | CCc1c(C#N)c(SCc2ccc(NC(=O)CO)cc2)nc(N2CCCN(C)CC2)c1C#N [Example 301, N-(4-(((3,5-Dicyano-4-ethyl-6-(4-methyl-1,4-diazepan-1-yl)pyridin-2-yl)thio)methyl)phenyl)-2-hydroxyacetamide] | 316 to 1000 nM | D (Category D: ≥6.5) | – | – | –
22 | CCc1c(C#N)c(SCCN(C)C)nc(SC(C(N)=O)c2ccccc2)c1C#N (stereo not shown) [Example 218, 2-((3,5-Dicyano-6-((2-(dimethylamino)ethyl)thio)-4-ethylpyridin-2-yl)thio)-2-phenylacetamide] | < 316 nM | – | 316 to 1000 nM | – | –
23 | CCc1c(C#N)c(SC(C(N)=O)c2ncccc2OC)nc(N2CCCN(C)CC2)c1C#N (stereo not shown) [Example 209, 2-((3,5-Dicyano-4-ethyl-6-(4-methyl-1,4-diazepan-1-yl)pyridin-2-yl)thio)-2-(3-methoxypyridin-2-yl)acetamide] | 316 to 1000 nM | – | 316 to 1000 nM | – | –
24 | CCc1c(C#N)c(SC(C(N)=O)c2ccccc2)nc(N(C)CC(=O)N2CCO[C@H](CO)C2)c1C#N (stereo partly drawn) [Example 646, 2-((3,5-dicyano-4-ethyl-6-((2-((S)-2-(hydroxymethyl)morpholino)-2-oxoethyl)(methyl)amino)pyridin-2-yl)thio)-2-phenylacetamide] | < 316 nM | D (Category D: ≥6.5) | – | – | –
25 | CCc1c(C#N)c(SC(C(N)=O)c2ccccc2)nc(N2CCO[C@H](CN)C2)c1C#N (stereo partly drawn) [Example 564, 2-((6-((R)-2-(aminomethyl)morpholino)-3,5-dicyano-4-ethylpyridin-2-yl)thio)-2-phenylacetamide] | < 316 nM | D (Category D: ≥6.5) | – | – | –
26 | CCc1c(C#N)c(SCc2ccc(CNC(=O)CN)cc2)nc(N(C)CCN(CC)CC)c1C#N [Example 520, 2-amino-N-(4-(((3,5-dicyano-6-((2-(diethylamino)ethyl)(methyl)amino)-4-ethylpyridin-2-yl)thio)methyl)benzyl)acetamide] | < 316 nM | D (Category D: ≥6.5) | – | – | –
27 | CCc1c(C#N)c(SC(C(N)=O)c2ccc(F)cc2)nc(N2CC[C@H](N(C)C)C2)c1C#N (stereo partly drawn) [Example 544, 2-((3,5-dicyano-6-((S)-3-(dimethylamino)pyrrolidin-1-yl)-4-ethylpyridin-2-yl)thio)-2-(4-fluorophenyl)acetamide] | 1000 to 31600 nM | D (Category D: ≥6.5) | – | – | –
